Reference: patent US12070458B2, “Therapeutic agent composition and method of use, for treatment of mild congnitive impairment, depression, and psychological disorders” (priority 2018, dated 2024)

Molecular target: T1, NR2B-subtype receptors (Mus musculus, UniProt P35438+Q01097)
T1 construct: from tissue; host or cells: forebrain membrane homogenate of male CD-1 mice
Test: NR2B receptor occupancy ex vivo (3H Ro 25-6981) after intravenous administration
Assay type: in vivo, CD-1 mice
Procedure: In this experiment, 8-10 weeks old male CD-1 mice (n=12) were administered intravenously in a vehicle consisting of 10% dimethylacetamide, 40% PEG-400, 30% hydroxypropyl betacyclodextrin, and 30% water with cyclic Prolyl Glycine (0.10 mg: rill, and the forebrains were harvested 15 minutes post-dosing by decapitation. The brain samples were immediately frozen and stored at −80′ C.
On the following day, the dosed brain samples were thawed on ice for 20-30 minutes followed by homogenization using Polytron for 10 seconds in cold homogenization buffer composed of 50 mM KH2PO4 (pH adjusted to 7.4 with KOH), 1 mM EDTA, 0.005% Triton X 100 and protease inhibitor cocktail (Fischer Scientific). The crude homogenates were further homogenized using a Bounce homogenizer (Thomas Scientific) and the homogenized membrane aliquots from all animals were […] and stored at −80° C. until further use. The whole homogenization process was performed on ice.
For determining occupancy, the membrane homogenates were thawed on ice and then needle homogenized using a 25-gauge needle. […] Non-specific binding was determined using 10 μM Ro 25-6981 added to the wells containing membrane homogenates from vehicle-dosed animals. […]

T1 sequence (Q01097 27-1482, other chains not shown): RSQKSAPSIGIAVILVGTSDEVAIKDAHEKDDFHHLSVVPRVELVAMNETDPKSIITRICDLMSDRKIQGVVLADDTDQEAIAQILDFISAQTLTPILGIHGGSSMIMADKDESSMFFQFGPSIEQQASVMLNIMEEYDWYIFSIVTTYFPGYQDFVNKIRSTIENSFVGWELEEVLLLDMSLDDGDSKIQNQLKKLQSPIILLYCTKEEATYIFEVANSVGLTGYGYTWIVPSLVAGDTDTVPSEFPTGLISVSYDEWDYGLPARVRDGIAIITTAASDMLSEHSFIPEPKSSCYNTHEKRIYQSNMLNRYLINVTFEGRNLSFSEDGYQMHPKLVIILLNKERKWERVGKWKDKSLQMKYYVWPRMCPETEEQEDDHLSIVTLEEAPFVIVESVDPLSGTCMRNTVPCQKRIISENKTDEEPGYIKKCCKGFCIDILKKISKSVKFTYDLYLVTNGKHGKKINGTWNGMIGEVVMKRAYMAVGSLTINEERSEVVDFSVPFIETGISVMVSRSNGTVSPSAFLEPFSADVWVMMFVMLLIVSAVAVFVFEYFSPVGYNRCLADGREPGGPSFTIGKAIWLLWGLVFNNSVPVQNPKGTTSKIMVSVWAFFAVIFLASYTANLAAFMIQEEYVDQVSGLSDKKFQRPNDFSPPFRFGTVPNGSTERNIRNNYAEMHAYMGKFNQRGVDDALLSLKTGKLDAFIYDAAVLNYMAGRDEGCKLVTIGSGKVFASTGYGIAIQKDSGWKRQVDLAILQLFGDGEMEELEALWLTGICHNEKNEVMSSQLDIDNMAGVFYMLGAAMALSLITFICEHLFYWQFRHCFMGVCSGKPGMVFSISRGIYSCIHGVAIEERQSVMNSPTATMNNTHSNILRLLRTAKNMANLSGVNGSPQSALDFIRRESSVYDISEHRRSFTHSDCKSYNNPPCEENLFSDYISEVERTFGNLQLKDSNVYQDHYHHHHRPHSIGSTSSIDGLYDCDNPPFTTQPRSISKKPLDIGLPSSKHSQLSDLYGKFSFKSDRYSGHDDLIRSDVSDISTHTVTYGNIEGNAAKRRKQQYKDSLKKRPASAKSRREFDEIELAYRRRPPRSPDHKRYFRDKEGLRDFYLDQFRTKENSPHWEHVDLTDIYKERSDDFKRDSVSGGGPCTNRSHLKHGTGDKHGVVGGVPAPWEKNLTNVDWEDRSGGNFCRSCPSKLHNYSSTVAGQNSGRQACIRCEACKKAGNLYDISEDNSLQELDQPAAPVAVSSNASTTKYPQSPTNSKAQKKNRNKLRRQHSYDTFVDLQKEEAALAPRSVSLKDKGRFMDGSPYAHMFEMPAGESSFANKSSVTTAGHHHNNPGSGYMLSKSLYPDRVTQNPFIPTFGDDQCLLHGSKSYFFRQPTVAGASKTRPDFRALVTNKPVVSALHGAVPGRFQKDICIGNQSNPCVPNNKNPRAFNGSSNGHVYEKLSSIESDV

O=C1NCC(=O)N2CCC[C@@H]12 [cPG, cyclic Prolyl Glycine]
receptor occupancy at 1 mg/kg (1 mg/Kg i.v., at the end of FST): 73% | receptor occupancy at 3 mg/kg (3 mg/Kg i.v., forebrains harvested 15 minutes post-dosing): 93%
